Assay results taken from patent publication US20140220552A1, “BLOOD COLLECTION DEVICES CONTAINING CONTACT PATHWAY INHIBITION ADDITIVES” (Becton, Dickinson and Company, priority 2013, published 2014).
Entries after “also recorded” stand apart in the source; their conditions may differ.

Key:
[1] = test system: thrombin; assay: TT assay in plasma (exogenous thrombin); format: biochemical, human; details: plasma containing inhibitor, FIG. 6
Description: (§1) FIG. 6 was obtained by performing matched aPTT, PT, and TT assays from plasma containing various inhibitors. These assays are well known to those skilled in the art and are not described in great detail here. […] Corn trypsin inhibitor (CTI) was included as a control since it is the factor XIIa inhibitor currently available in a blood collection tube.

[2] = test system: TF coagulation pathway; assay: PT assay in plasma (high dose tissue factor); format: biochemical, human; details: for thrombin generation in tests that monitor the TF coagulation pathway exclusively: identical samples as aPTT, FIG. 6 lower panels; for PT clotting time result: plasma containing inhibitor, FIG. 6
Description: as §1
This verifies that aprotinin exclusively suppresses thrombin formation through the contact coagulation pathway but not through the TF pathway.

[3] = test system: contact coagulation pathway; assay: activated partial thromboplastin time (aPTT) assay in plasma; format: biochemical, human; details: plasma containing inhibitor, FIG. 6, anti-FXI antibody at 7.5 μg/mL
Description: as §1
(§2) Citrated human WB is transferred from a blood collection bag into coated (siliconized) glass or plastic blood collection tubes, or uncoated glass, polypropylene (PP), polystyrene (PS), or polyethylene terephthalate (PET) conical bottom tubes, either alone or in the presence of inhibitors targeting kallikrein (e.g. aprotinin) or FXIa (e.g. anti-human Factor XI antibody). After 15 minutes incubation, the TEG R value is obtained immediately after addition of 10 mM CaCl2. Matched plasma specimens are analyzed by the CAT in the presence and absence of 1 picomolar Tissue Factor (TF) and by activated partial thromboplastin time (APTT; Stago Compact). Data are analyzed by ANOVA with Tukey's post-test and by linear regression.

[4] = test system: thrombin generation; assay: Calibrated Automated Thrombogram (CAT) thrombin generation assay in citrated plasma; format: biochemical, human
Description: FIGS. 3A and 3B is a table and chart comparing thrombin generation from citrated plasma obtained from tubes made of various materials using the Calibrated Automated Thrombogram (CAT) assay. The CAT assay, rather than measuring coagulation, combines the use of a fluorogenic substrate that is cleaved in the presence of thrombin as well as a calibrator to provide a quantitative measurement of thrombin generation in a recalcified plasma sample. The predominant use of this assay is to examine the thrombin generation profile of a clinical research sample in response to tissue factor (TF). […] The charts contained in FIG. 3B provide example thrombin generation curves that were used to populate the data table in FIG. 3A.
as §2, with “After 15 minutes incubation, the TEG R value is obtained immediately after addition of 10 mM CaCl2.” left out, “regression. […]” for “regression.”

[5] = sterilization stability of the additive in a blood collection tube; format: physicochemical
Description: FIG. 7 provides a comparison of kallikrein, factor XIIa, and factor IX inhibition for the purposes of mitigating contact pathway contributions to thrombin generation.
An advantage of using aprotinin over CTI or anti-Factor XI antibody is that neither of the latter two inhibitors can be present in a tube that has been sterilized.

[6] = test system: contact coagulation pathway; assay: Thrombelastography (TEG) citrated-native whole blood clotting time (R time) after recalcification; format: biochemical, human
Description: FIGS. 2A and 2B are a table and chart comparing recalcified clotting times for tubes made from various materials using a Thrombelastograph® (TEG) 5000 Hemostasis Analyzer. […] Briefly, BD Vacutainer® 369714 glass and 363083 plastic citrate tubes were washed and dried to remove the citrate additive. Afterwards, tubes were filled to capacity using a commercial bag of citrated human whole blood. Samples were incubated for 15 minutes at room temperature with gentle rocking to promote blood contact with the surface material of the tube wall. Finally, the whole blood clotting time was measured using combined recalcification and TEG. […] Furthermore, it is important to note that only highly sensitive coagulation assays that are performed in the absence of a strong contact pathway activator will be sensitive to these differences.
The titration was performed by evaluating whole blood clotting time (TEG R time). A minimally effective dose was determined at 1000 kallikrein inhibitor units (1000 KIU) per mL of blood as concentrations below that only provided mean clotting times that were either equivalent or lower to that of siliconized glass.
The titration was performed by evaluating whole blood clotting time (TEG R time).
as §2
As shown in FIG. 4(A) various concentrations of aprotinin were used in tests to determine the impact on whole blood clotting time using TEG. […]

| Substance | TT clotting time result [1] | thrombin generation in tests that monitor the TF coagulation pathway exclusively [2] | PT clotting time result [2] | aPTT result [3] | mitigation of contact pathway contributions to thrombin generation (CAT) ([4]; glass and plastic citrate tubes, FIG. 7) | thrombin generation (CAT), effect of increasing aprotinin ([4]; siliconized glass and plastic tubes, FIG. 4B) | sterilization stability [5] | whole blood clotting time (TEG R time) ([6]; 2000 KIU/mL aprotinin, blood in uncoated glass, compared with siliconized glass or plastic) | minimally effective dose by whole blood clotting time (TEG R time) ([6]; aprotinin titration in citrated blood, lower concentrations gave clotting times equivalent or lower to siliconized glass) | aprotinin concentration mitigating the contact coagulation pathway in uncoated glass tubes to a level equivalent to siliconized glass or plastic tubes ([6]; citrated blood in uncoated glass tubes, TEG) | aPTT result ([3]; listed as Aprotinin) |
| --- | --- | --- | --- | --- | --- | --- | --- | --- | --- | --- | --- |
| Corn trypsin inhibitor [CTI] | none of the inhibitors produced prolonged PT or TT assays | unaffected | none of the inhibitors produced prolonged PT or TT assays | Equivalent inhibition | – | – | – | – | – | – | – |
| aprotinin | none of the inhibitors produced prolonged PT or TT assays | unaffected | none of the inhibitors produced prolonged PT or TT assays | equivalent to or greater than the time to generate thrombin in the presence of CTI and anti-Factor XI antibody | robustly diminished; also recorded: equivalent to that of CTI and anti-Factor XI antibody | delays and reduces thrombin generation in a dose dependent fashion; also recorded: thrombin generation is decreased and delayed | sterilization stable | longer clotting times than that of blood stored in either siliconized glass or plastic | 1000 KIU per mL of blood | ≥ 1000 KIU/mL | dose dependent effect |
